# Measured values: patent publication US9006241B2, “Pyrimidine derivatives” (Noviga Research AB, priority 2011, dated 2015)
# Assays:
# Type in all cases: cell-based
# [1] = tested on: 8226/Dox40 (doxorubicin-resistant myeloma); assay: FMCA, 8226/Dox40; conditions: 8226/Dox40 doxorubicin-resistant myeloma cells
# Text: (§1) The Fluorometric Microculture Cytotoxicity Assay, FMCA (Larsson, R., et al.; Anticancer Res, 1989, 9, 1111-1119), is a three day non-clonogenic microplate-based cell viability assay used for measurement of the cytotoxic and/or cytostatic effect of compounds in vitro (Lindhagen, E. et al.; Nat. Protoc., 2008, 3, 1364-1369). FMCA represents a valuable method to measure cytotoxicity in a number of cell types, both cell lines and primary cells from patients (Larsson, R., et al.; Int. J. Cancer, 1992, 50, 177-185; Fridborg, H., et al.; Eur. J. Cancer, 1999. 35, 424-432; Dhar, S., et al.; Br. J. Cancer, 1996, 74, 888-896).
# (§2) FMCA is based on the principle that fluorescein diacetate (FDA) is converted to the fluorescent probe fluorescein by esterases in the plasma membranes of living cells. For experiments, 96 or 384-well microplates are prepared with compounds and stored at −70° C. until use. Cells are then seeded into the drug-prepared plates and placed in an incubator for 72 h. On the last day of incubation, the plates are washed and a buffer containing FDA is added and incubated with the cells for 45 minutes. Finally the fluorescence per well is measured in a fluorometer and a Survival Index % (SI) for each compound-treated well is calculated with the equation: Compound-treated cells minus blank divided by control cells minus blank. A high SI-value indicates a large percentage of living cells and vice versa.
# (§3) For dose-response experiments, 384-well plates were prepared as follows:
# (§4) Compounds of the invention as well comparative kinase inhibitors sorafenib sunitinib, dasatinib, pazopanib and a reference compound disclosed in WO 2009/071535 (compound #107) were diluted with PBS to a concentration ten-times higher than the desired starting concentration. Then, a Biomek 2000 liquid handling system was employed to serially dilute the compounds in a deep-well 384-well plate. From this plate, assay plates containing 5 μl compound per well were prepared with the Biomek 2000. Certain compounds precipitated when diluted with PBS, and these compounds were therefore prepared in a 96-well plate manually as described above using culture medium RPMI 1640 instead of PBS.
# (§5) The compounds were also tested at five concentrations, with five times serial dilution on the following cell types: CCRF-CEM, hTERT-RPE1 (normal retinal epithelial cells), hRPTEpiC (normal renal cells), and peripheral blood mononuclear cells (PBMC). Each experiment was performed three times, except for PBMC and hRPTEpiC, which were performed twice. SI-values were calculated, graphs were plotted using GraphPadPrism 5.0 (GraphPad Software Inc. La Jolla, Calif.) and IC50-values for each cell type and compound were determined from the curves.
# (§6) The compounds of the invention were also tested on further cancer cell lines related to breast cancer (MDA-MB-231; see e.g. Cailleau, R., et al.; J. Natl. Cancer Inst., 1974, 53, 661-674), teniposide-resistant leukemia (CEM/VM1 see e.g. Danks, M., et al.; Cancer Res., 1987, 47, 1297-1301), leukemia (HL-60; see e.g. Collins, S., et al.; Nature, 1977, 270, 347-349), doxorubicin-resistant lung cancer (H69AR; see e.g. Mirski, S., et al.; Cancer Res., 1987, 47, 2594-2598), myeloma (RPMI 8226; see e.g. Matsuoka, Y., et al.; Proc. Soc. Exp. Biol. Med., 1967, 125, 1246-1250), doxorubicin-resistant myeloma (8226/Dox40; see e.g. Dalton, W., et al.; Blood, 1989, 15, 747-752), lymphoma (U-937, see e.g. Sundström, C., et al.; Int. J. Cancer, 1976, 17, 565-577), vincristin-resistant lymphoma (U-937-vcr; see e.g. Botling, J., et al.; Int. J. Cancer, 1994, 58, 269-274), ovarian cancer (A2780; see e.g. Hamilton, T., et al.; Semin. Oncol., 1984, 11, 285-298), doxorubicin-resistant ovarian cancer (A2780/Adr), cisplatin-resistant ovarian cancer (A2780/Cis; see e.g. Behrens, B., et al. Cancer Res. 1987, 47, 414-418), pancreatic cancer (PANC-1, BxPC-3, and MIA PaCa-2; see e.g. Lieber, M., et al.; Int. J. Cancer, 1975, 15, 741-747; Loor, R., et al.; Clin. Lab. […]
# [2] = tested on: BxPC-3 (pancreatic cancer); assay: FMCA, BxPC-3; conditions: Homo sapiens, BxPC-3 pancreatic cancer cells
# Text: as §1, §2, §3, §4, §5
# (§7) The compounds of the invention were also tested on further cancer cell lines related to breast cancer (MDA-MB-231; see e.g. Cailleau, R., et al.; J. Natl. Cancer Inst., 1974, 53, 661-674), teniposide-resistant leukemia (CEM/VM1 see e.g. Danks, M., et al.; Cancer Res., 1987, 47, 1297-1301), leukemia (HL-60; see e.g. Collins, S., et al.; Nature, 1977, 270, 347-349), doxorubicin-resistant lung cancer (H69AR; see e.g. Mirski, S., et al.; Cancer Res., 1987, 47, 2594-2598), myeloma (RPMI 8226; see e.g. Matsuoka, Y., et al.; Proc. Soc. Exp. Biol. Med., 1967, 125, 1246-1250), doxorubicin-resistant myeloma (8226/Dox40; see e.g. Dalton, W., et al.; Blood, 1989, 15, 747-752), lymphoma (U-937, see e.g. Sundström, C., et al.; Int. […]
# [3] = tested on: MDA-MB-231 (breast cancer); assay: FMCA, MDA-MB-231; conditions: Homo sapiens, MDA-MB-231 breast cancer cells
# Text: as §1, §2, §3, §4, §5, §7
# [4] = tested on: A2780/Adr (doxorubicin-resistant ovarian cancer); assay: FMCA, A2780/Adr; conditions: A2780/Adr doxorubicin-resistant ovarian cancer cells
# Text: as §1, §2, §3, §4, §5, §6
# [5] = tested on: PANC-1 (pancreatic cancer); assay: FMCA, PANC-1; conditions: Homo sapiens, PANC-1 pancreatic cancer cells
# Text: as §1, §2, §3, §4, §5, §7
# [6] = tested on: H69AR (doxorubicin-resistant lung cancer); assay: FMCA, H69AR; conditions: Homo sapiens, H69AR doxorubicin-resistant lung cancer cells
# Text: as §1, §2, §3, §4, §5, §6
# [7] = tested on: CEM/VM1 (teniposide-resistant leukemia); assay: FMCA, CEM/VM1; conditions: Homo sapiens, CEM/VM1 teniposide-resistant leukemia cells
# Text: as §1, §2, §3, §4, §5, §6
# [8] = tested on: MIA PaCa-2 (pancreatic cancer); assay: FMCA, MIA PaCa-2; conditions: Homo sapiens, MIA PaCa-2 pancreatic cancer cells
# Text: as §1, §2, §3, §4, §5, §7
# A2780 (ovarian cancer) = assay: FMCA, A2780; conditions: Homo sapiens, A2780 ovarian cancer cells
# Text: as §1, §2, §3, §4, §5, §6
# [9] = tested on: CCRF-CEM cancer cells - leukemia; assay: Fluorometric Microculture Cytotoxicity Assay (FMCA), CCRF-CEM; conditions: Homo sapiens, 72 h incubation
# Text: as §1, §2
# In subsequent experiments, compounds were tested, along with a number of approved cancer drugs (dasatinib, pazopanib, sorafenib, and sunitinib) as described above. Initially, the acute lymphoblastic leukemia cell line CCRF-CEM was used throughout. In the assay plates, medium was added to six empty wells (blank wells) and wells were filled with PBS and cell suspension and served as control wells. SI-values were then calculated for each compound-treated well as described above. All experiments were conducted twice and a new batch of plates was prepared for each experiment.
# as §3, §4, §5
# [10] = tested on: U-937-vcr (vincristin-resistant lymphoma); assay: FMCA, U-937-vcr; conditions: U-937-vcr vincristin-resistant lymphoma cells
# Text: as §1, §2, §3, §4, §5, §6
# HL-60 (leukemia) = assay: FMCA, HL-60; conditions: Homo sapiens, HL-60 leukemia cells
# Text: as §1, §2, §3, §4, §5, §7
# PC-3 (prostate cancer) = assay: FMCA, PC-3; conditions: PC-3 prostate cancer cells
# Text: as §1, §2, §3, §4, §5, §7
# U-937 (lymphoma) = assay: FMCA, U-937; conditions: Homo sapiens, U-937 lymphoma cells
# Text: as §1, §2, §3, §4, §5, §6
# RPMI 8226 (myeloma) = assay: FMCA, RPMI 8226; conditions: Homo sapiens, RPMI 8226 myeloma cells
# Text: as §1, §2, §3, §4, §5, §6
# [11] = tested on: A2780/Cis (cisplatin-resistant ovarian cancer); assay: FMCA, A2780/Cis; conditions: A2780cis, A2780/Cis cisplatin-resistant ovarian cancer cells
# Text: as §1, §2, §3, §4, §5, §6
SMILES,EC50 [1] [nM],EC50 [2] [nM],EC50 [3] [nM],EC50 [4] [nM],EC50 [5] [nM],EC50 [6] [nM],EC50 [7] [nM],EC50 [8] [nM],EC50 (A2780 (ovarian cancer)) [nM],EC50 [10] [nM],EC50 (HL-60 (leukemia)) [nM],EC50 (PC-3 (prostate cancer)) [nM],EC50 (U-937 (lymphoma)) [nM],EC50 (RPMI 8226 (myeloma)) [nM],EC50 [11] [nM],EC50 [9] [nM]
"COc1ccc2[nH]cc(CCNc3nccc(Nc4ccc5[nH]c(C)cc5c4)n3)c2c1 [Example 4, N^2-[2-(5-methoxy-1H-indol-3-yl)ethyl]-N^4-(2-methyl-1H-indol-5-yl)pyrimidine-2,4-diamine]",110,37,100,140,1600,23,6.6,14,33,28,9.1,240,13,45,25,28
"CCOc1ccc2[nH]cc(CCNc3nccc(Nc4ccc5[nH]c(C)cc5c4)n3)c2c1 [Example 5, N^2-[2-(5-ethoxy-1H-indol-3-yl)ethyl]-N^4-(2-methyl-1H-indol-5-yl)pyrimidine-2,4-diamine]",160,55,57,180,430,94,17,18,51,20,8.2,150,22,42,33,15
"Cc1ccc2[nH]cc(CCNc3nccc(Nc4ccc5[nH]c(C)cc5c4)n3)c2c1 [Example 9, N^2-[2-(5-methyl-1H-indol-3-yl)ethyl]-N^4-(2-methyl-1H-indol-5-yl)pyrimidine-2,4-diamine]",200,,,820,,170,64,,210,46,,,80,170,200,38
"COc1ccc2[nH]cc(CCNc3nccc(Nc4ccc5c(c4)cc(C)n5C)n3)c2c1 [Example 13, N^4-(1,2-dimethyl-1H-indol-5-yl)-N^2-[2-(5-methoxy-1H-indol-3-yl)ethyl]pyrimidine-2,4-diamine]",180,130,380,330,860,120,38,54,64,29,20,380,30,120,73,19
"COc1ccc2[nH]cc(CCNc3nccc(Nc4ccc5[nH]c(C)c(C)c5c4)n3)c2c1 [Example 14, N^4-(2,3-dimethyl-1H-indol-5-yl)-N^2-[2-(5-methoxy-1H-indol-3-yl)ethyl]pyrimidine-2,4-diamine]",280,,,440,,200,51,,110,44,,,73,210,63,21
"Cc1ccc(Nc2nccc(N(C)c3ccc4c(C)n(C)nc4c3)n2)cc1S(N)(=O)=O [Ref. 4, pazopanib, reference compound]",,,,,,,,,,,,,,,,25900

# Now from value to compound, other results behind:
EC50 [1] [nM],EC50 [2] [nM],EC50 [3] [nM],EC50 [4] [nM],EC50 [5] [nM],EC50 [6] [nM],EC50 [7] [nM],EC50 [8] [nM],EC50 (A2780 (ovarian cancer)) [nM],EC50 [10] [nM],EC50 (HL-60 (leukemia)) [nM],EC50 (PC-3 (prostate cancer)) [nM],EC50 (U-937 (lymphoma)) [nM],EC50 (RPMI 8226 (myeloma)) [nM],EC50 [11] [nM],SMILES,EC50 [9] [nM]
4300,120,150,980,1400,120,71,58,55,69,31,310,37,1400,96,"COc1ccc2[nH]cc(CCNc3nccc(Nc4ccc5[nH]c(CO)cc5c4)n3)c2c1 [Example 15, (5-{2-[2-(5-methoxy-1H-indol-3-yl)ethylamino]pyrimidin-4-ylamino}-1H-indol-2-yl)methanol]",27
30000,910,1900,2000,5200,940,62,31,130,780,92,2100,100,7800,230,"COc1ccc2[nH]cc(CCNc3nccc(Nc4ccc5[nH]c(C)nc5c4)n3)c2c1 [Example 19, N^2-[2-(5-methoxy-1H-indol-3-yl)ethyl]-N^4-(2-methyl-1H-benzo[d]imidazol-5-yl)pyrimidine-2,4-diamine]",32
300,,,440,,63,44,,74,62,,,41,110,62,"COc1ccc2[nH]cc(CCNc3nc(C)cc(Nc4ccc5[nH]c(C)cc5c4)n3)c2c1 [Example 27, N^2-[2-(5-methoxy-1H-indol-3-yl)ethyl]-6-methyl-N^4-(2-methyl-1H-indol-5-yl)pyrimidine-2,4-diamine]",19
